Non-standard residues stand in square brackets, D forms with d. Residues, ends and D or L forms follow the SMILES beside them. *: point of attachment. NHPhenethyl = c1ccc(CCN*)cc1; Dap = NC[CH](N)C(=O)O; NHBn = c1ccc(CN*)cc1
What was measured:
[1] = system: co-culture model of human muscle cells and neurons from the spinal marrow of rat embryos; test: Efficacy test: frequency of muscle contractions in a nerve-muscle co-culture model; assay type: cell-based, human (myoblasts), rat (embryo spinal explants); conditions: for Variation Δ [in %] of the number of muscle contractions (1 min): 1 minute after incubation; for Variation Δ [in %] of the number of muscle contractions (1 min) / Variation Δ [in %] of the number of muscle contractions (2 h) / Variation Δ [in %] of the number of muscle contractions (48 h): contractions counted for 30 seconds, compared to number before incubation, means of 3 measurements; for Variation Δ [in %] of the number of muscle contractions (2 h): 2 hours after incubation; for Variation Δ [in %] of the number of muscle contractions (48 h): 48 hours after incubation
Description: Culture conditions: 37° C., 5% CO2 In order to test the efficacy of the compounds of the present invention, a co-culture model of human muscle cells on one hand and neurons from the spinal marrow of rat embryos on the other hand was established. Normal human muscle cells (myoblasts) were cultured in gelatine-coated 24-well plates until a monolayer of myofibrils (from fused muscle cells) had formed. Afterwards, an explant of the spinal marrow of a 13 day-old rat embryo with dorsal root ganglia was placed on the muscle cell monolayer. After one day of co-culture, the first axons were seen to grow out of the explant to come in contact with muscle cells. The first contractions appeared after 5 days. […] At this stage of development, the myofibrils performed regular contractions and the model was used for the tests.

[2] = system: Ca++-dependent neurotransmitter release in the synapses; conditions: cited from earlier work

Structure (SMILES)	Variation Δ [in %] of the number of muscle contractions (1 min) ([1]; 0.1 mM)	Variation Δ [in %] of the number of muscle contractions (2 h) ([1]; 0.1 mM)	Variation Δ [in %] of the number of muscle contractions (48 h) ([1]; 0.1 mM)	Variation Δ [in %] of the number of muscle contractions (1 min) ([1]; 0.5 mM)	Variation Δ [in %] of the number of muscle contractions (2 h) ([1]; 0.5 mM)	Variation Δ [in %] of the number of muscle contractions (48 h) ([1]; 0.5 mM)	Variation Δ [in %] of the number of muscle contractions (1 min) ([1]; 1.0 mM)	Variation Δ [in %] of the number of muscle contractions (2 h) ([1]; 1.0 mM)	Variation Δ [in %] of the number of muscle contractions (48 h) ([1]; 1.0 mM)	Variation Δ [in %] of the number of muscle contractions (1 min) ([1]; 0.05 mM)	Variation Δ [in %] of the number of muscle contractions (2 h) ([1]; 0.05 mM)	muscle-relaxing effect / activity profile with regard to muscle relaxation ([1]; result in words)	acts weaker than Botox (factor) [2]
COc1ccc(CNC(=O)C(CCCNC(=N)N)NC(=O)C2CCCN2C(=O)C(C)N)cc1 (stereo not shown) [4.8]	85%	37%	132%	84%	90%	78%	100%	58%	32%				
CC(N)C(=O)N1CCCC1C(=O)NC(CCCNC(=N)N)C(=O)NC(CCCNC(=N)N)C(=O)NCc1ccccc1 (stereo not shown) [4.3] (H-APRR-NHBn; configuration not given here)	91%	5%	88%	73%	1%	87%	25%	0%	7%				
N=C(N)NCCCC(NC(=O)C1CCCN1C(=O)C(N)CN)C(=O)NCc1ccccc1 (stereo not drawn) [4.6] (H-[Dap]-Pro-Arg-NHBn; configuration not given here)	85%	68%	43%	78%	42%	0%	68%	35%	0%				
C[C@H](N=C(N(C)C)N(C)C)C(=O)N1CCC[C@@H]1C(=O)N[C@@H](CCCNC(=N)N)C(=O)NCc1ccccc1 [4.11]	105%	75%	96%	105%	16%	22%	104%	7%	0%				
CSCC[C@H](NC(=O)[C@H](CCC(=O)O)NC(=O)[C@H](CCC(=O)O)NC(C)=O)C(=O)N[C@@H](CCC(N)=O)C(=O)N[C@@H](CCCNC(=N)N)C(=O)N[C@@H](CCCNC(=N)N)C(N)=O [Product A, Ac-Glu-Glu-Met-Gln-Arg-Arg-NH2, reference compound] (Ac-EEMQRR-NH2)	103%	120%		106%	91%		99%	88%		103%	96%	too weak and too inconstant	5000 times
CC(N)C(=O)N1CCCC1C(=O)NC(CCCNC(=N)N)C(=O)NCc1ccccc1 (stereo not drawn) [4.2] (H-Ala-Pro-Arg-NHBn; configuration not given here)	85%	78%	37%	93%	37%	36%	85%	12%	60%				
CC(N)C(=O)N1CCCC1C(=O)NC(CCCNC(=N)N)C(=O)NCCc1ccccc1 (stereo not drawn) [4.7] (H-Ala-Pro-Arg-NHPhenethyl; configuration not given here)	103%	69%	74%	91%	0%	34%	105%	65%	3%				
